Measured values from publication PMC10892423 (Pharmaceutics, 2024).
pIC50: −log10 of the molar value. Where two headings read alike, the source gives them in different places.

Tests used:
Assay type in all cases: biochemical
OXA-48 = biological target: T1, OXA-48 (Klebsiella pneumoniae, UniProt Q6XEC0); test: β-lactamase inhibition, nitrocefin hydrolysis
T1 construct: Genes encoding OXA-48 (residues 23–265) and VIM-2 (residues 27–266) were custom-synthesized; made in house
Description: (§1) Recombinant AmpC from Escherichia coli was produced according to a previously reported protocol. KPC-2 and NDM-1 […] were purchased from LifeSpan Biosciences, Inc. (Lynnwood, WA, USA) (LS-G26598) and RayBiotech, Inc. (Peachtree Corners, GA, USA) (230-00554), respectively. Genes encoding OXA-48 (residues 23–265) and VIM-2 (residues 27–266) were custom-synthesized (Bioneer Inc., Seoul, Republic of Korea) and expressed as previously described. The β-lactamase inhibitory activity of the title compounds was then determined according to the previously reported methods. Briefly, equal volumes (100 μL) of the title compounds (70–0.1 μM in PBS) and diluted enzyme stock were mixed (final concentration 2% of DMSO in 200 μL) in 96-well plates, which were then incubated at 37 °C for 20 min. The incubated mixture was added to each well containing substrates (nitrocefin for AmpC, KPC-2, OXA-48, and VIM-2; and imipenem for NDM-1) of final concentrations of 70 μM for nitrocefin and 100 μM for imipenem. Substrate hydrolysis was monitored at 486 nm (nitrocefin) or 300 nm (imipenem) for 15 min, using a Cytation 5 imaging multimode reader (BioTek Instruments Inc., Winooski, VT, USA). At the plateau level of hydrolysis, the corresponding rates of hydrolysis were compared to those obtained without inhibitors (100%) to determine the percentage of enzyme inhibition at each concentration of the title compounds. The IC50 values of the compounds were derived from sigmoidal dose–response curves, using GraphPad Prism 5 (GraphPad Software, Boston, MA, USA).

AmpC = biological target: T2, AmpC (Escherichia coli, UniProt P00811); test: β-lactamase inhibition, nitrocefin hydrolysis
T2 construct: made in house
T2 sequence (P00811 20-377): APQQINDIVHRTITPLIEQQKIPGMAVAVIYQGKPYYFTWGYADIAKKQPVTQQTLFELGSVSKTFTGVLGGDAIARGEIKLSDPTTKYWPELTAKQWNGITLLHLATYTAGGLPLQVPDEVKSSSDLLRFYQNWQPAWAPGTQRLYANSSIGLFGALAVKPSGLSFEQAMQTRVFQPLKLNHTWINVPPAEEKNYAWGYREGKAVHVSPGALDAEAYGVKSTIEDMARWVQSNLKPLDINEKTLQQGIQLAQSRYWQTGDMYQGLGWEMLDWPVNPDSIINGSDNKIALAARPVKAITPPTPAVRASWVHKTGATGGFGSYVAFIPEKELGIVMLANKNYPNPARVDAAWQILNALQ
Description: as §1

KPC-2 = biological target: T3, KPC-2 (Klebsiella pneumoniae, UniProt Q9F663); test: β-lactamase inhibition, nitrocefin hydrolysis
T3 construct: purchased LifeSpan Biosciences, Inc. LS-G26598
T3 sequence (Q9F663 25-293, looked up): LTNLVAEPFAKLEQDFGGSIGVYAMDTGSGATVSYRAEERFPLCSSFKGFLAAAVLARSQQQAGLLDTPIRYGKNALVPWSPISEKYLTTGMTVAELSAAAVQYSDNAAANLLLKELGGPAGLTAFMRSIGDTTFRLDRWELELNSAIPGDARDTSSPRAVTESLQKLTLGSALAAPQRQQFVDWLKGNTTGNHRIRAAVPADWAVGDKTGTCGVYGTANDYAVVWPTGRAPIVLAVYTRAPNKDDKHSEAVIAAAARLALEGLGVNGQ
Description: as §1

VIM-2 = biological target: T4, VIM-2 (Escherichia coli, UniProt Q5U7L7); test: β-lactamase inhibition, nitrocefin hydrolysis
T4 construct: Genes encoding OXA-48 (residues 23–265) and VIM-2 (residues 27–266) were custom-synthesized; made in house
Description: as §1

NDM-1 = biological target: T5, NDM-1 (Klebsiella pneumoniae, UniProt C7C422); test: β-lactamase inhibition, imipenem hydrolysis
T5 construct: purchased RayBiotech, Inc. 230-00554
T5 sequence (C7C422 29-270, looked up, species assumed): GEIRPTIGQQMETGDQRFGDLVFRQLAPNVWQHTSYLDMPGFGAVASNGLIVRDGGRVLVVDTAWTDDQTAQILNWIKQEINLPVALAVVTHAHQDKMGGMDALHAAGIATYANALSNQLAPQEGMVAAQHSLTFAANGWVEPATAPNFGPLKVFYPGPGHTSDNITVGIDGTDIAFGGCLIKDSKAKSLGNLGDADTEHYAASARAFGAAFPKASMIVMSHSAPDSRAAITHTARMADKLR
Description: as §1

[1] = nitrocefin substrate, read-out: β-Lactamases, IC50 OXA-48
[2] = nitrocefin substrate, read-out: β-Lactamases, IC50 KPC-2
[3] = nitrocefin substrate, read-out: β-Lactamases, IC50 VIM-2
[4] = imipenem substrate, read-out: β-Lactamases, IC50 NDM-1

T1 sequence (Q6XEC0 23-265 limits assumed): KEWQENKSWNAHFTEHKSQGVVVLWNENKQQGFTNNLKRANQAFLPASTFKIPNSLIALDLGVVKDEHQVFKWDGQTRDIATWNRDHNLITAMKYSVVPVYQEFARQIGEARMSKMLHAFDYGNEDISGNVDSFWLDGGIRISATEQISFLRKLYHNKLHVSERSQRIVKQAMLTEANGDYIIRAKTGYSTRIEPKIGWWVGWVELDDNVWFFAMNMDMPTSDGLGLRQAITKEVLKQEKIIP

Row | SMILES | pIC50 (OXA-48; [1]) | pIC50 (AmpC) | pIC50 (KPC-2; [2]) | pIC50 (VIM-2; [3]) | pIC50 (NDM-1; [4]) | pIC50 (OXA-48) | pIC50 (KPC-2) | pIC50 (VIM-2) | pIC50 (NDM-1)
1 | NCCOCCOc1c(-c2ccc(F)c(F)c2)oc2cc(O)cc(O)c2c1=O [Compound 11] | < 4.00 | < 4.30 | < 4.30 | < 4.00 | < 4.30 |  |  |  | 
2 | O=c1c(OCCN2CCCC2)c(-c2ccc(F)c(F)c2)oc2cc(O)cc(O)c12 [Compound 18] | < 4.00 | < 4.30 | < 4.30 | < 4.00 | < 4.30 |  |  |  | 
3 | CN1CCN(CCOc2c(-c3ccc(F)c(F)c3)oc3cc(O)cc(O)c3c2=O)CC1 [Compound 16] | < 4.00 | < 4.30 | < 4.30 | < 4.00 | < 4.30 |  |  |  | 
4 | O=c1c(OCCN2CC2)c(-c2ccc(F)c(F)c2)oc2cc(O)cc(O)c12 [Compound 14] |  | < 4.30 |  |  |  | < 4.00 | < 4.30 | < 4.00 | < 4.30
5 | O=c1c(OCCCC2CCCC2)c(-c2ccc(F)c(F)c2)oc2cc(O)cc(O)c12 [Compound 29] | 5.26 | < 4.30 | 4.55 | 5.29 | 4.57 |  |  |  | 
6 | CC(C)(C)CC(=O)Oc1c(-c2ccc(F)c(F)c2)oc2cc(O)cc(O)c2c1=O [Compound 3] | 4.67 | 4.72 | 4.65 | 4.69 | 4.61 |  |  |  | 
7 | O=c1c(OCCc2cccs2)c(-c2ccc(F)c(F)c2)oc2cc(O)cc(O)c12 [Compound 12] | < 4.00 | < 4.30 | < 4.30 | < 4.00 | < 4.30 |  |  |  | 
8 | O=c1c(OCC2CCCC2)c(-c2ccc(F)c(F)c2)oc2cc(O)cc(O)c12 [Compound 28] | 5.04 | < 4.30 | 4.39 | 5.11 | 4.66 |  |  |  | 
9 | O=c1c(OCCN2CCOCC2)c(-c2ccc(F)c(F)c2)oc2cc(O)cc(O)c12 [Compound 20] | < 4.00 | < 4.30 | < 4.30 | < 4.00 | < 4.30 |  |  |  | 
